Data published in patent US20100204202A1, “DRUG FOR ALLEVIATING MOTOR COMPLICATIONS OR PSYCHIATRIC SYMPTOMS OF PARKINSON'S DISEASE” (Asubio Pharma Co., Ltd., priority 2007, published 2010).
“Also recorded” adds a separate entry of the source. Counter-ions that a name gives are not always drawn. Like-named read-outs stand apart in the source and are kept apart here.

Experiments:
[1] = biological target: T1, human dopamine D2S receptors (Homo sapiens, UniProt P14416); test: Agonist/antagonist assay, [35S]GTPgammaS binding, human dopamine D2S receptors; type: biochemical; details: for EC50 / Emax / IC50: Dopamine D2S; for antagonist activity (in words): human dopamine D2S receptors
T1 construct: expressed in transfected cells; host or cells: CHO
T1 sequence (P14416 1-414 isoform P14416-2): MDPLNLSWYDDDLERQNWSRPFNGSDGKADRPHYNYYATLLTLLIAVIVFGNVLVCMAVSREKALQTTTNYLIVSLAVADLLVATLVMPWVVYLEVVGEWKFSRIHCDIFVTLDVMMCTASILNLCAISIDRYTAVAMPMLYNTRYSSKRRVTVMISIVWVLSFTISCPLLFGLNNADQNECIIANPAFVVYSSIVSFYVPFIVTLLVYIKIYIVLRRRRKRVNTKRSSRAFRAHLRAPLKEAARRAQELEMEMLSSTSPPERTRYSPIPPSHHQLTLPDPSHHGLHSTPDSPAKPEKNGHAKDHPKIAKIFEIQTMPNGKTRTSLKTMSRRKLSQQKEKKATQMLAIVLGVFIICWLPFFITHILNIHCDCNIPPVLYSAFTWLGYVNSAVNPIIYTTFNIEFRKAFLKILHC
Experimental: For the tests, membrane specimens prepared from Chinese hamster ovary (CHO-K1) cells expressing human serotonin 1A receptors, Chinese hamster ovary (CHO) cells expressing human dopamine D2L receptors, Chinese hamster ovary (CHO) cells expressing human dopamine D2S receptors and Chinese hamster ovary (CHO) cells expressing human dopamine D3 receptors were used. In the agonist assays, for the serotonin 1A receptors, [^35S] GTPγS (final concentration 0.1 nM), a GDP solution (final concentration 3 μM), the test sample solution and a membrane specimen were added to a 20 mM Hepes-NaOH buffer (pH 7.4) containing 100 mM NaCl, 3 mM MgCl2 and 10 μg/mL saponin and allowed to react at 25° C. for 30 minutes. Further, for the dopamine (D2L, D2S and D3) receptors, [^35S] GTPγS (i.e., final concentration 0.1 nM), a GDP solution (final concentration 3 μM), the test sample solution and a membrane specimen were added to a 20 mM Hepes-NaOH buffer (pH 7.4) containing 100 mM NaCl, 10 mM MgCl2, 1 mM DTT and 1 mM EDTA and allowed to react at 30° C. for 15 minutes (in the case of D2L receptors) or for 30 minutes (in the cases of D2S and D3 receptors). Further, in the antagonist assays, except for adding to the reaction solutions 10 μM 5-carboxamide tryptamine (5-CT) (in the case of serotonin 1A receptors), 3 μM dopamine (in the cases of D2L and D2S receptors), or 0.1 μM dopamine (in the case of D3 receptors), operations were performed similar to the agonistic tests. After the end of the reaction, the reaction solution was filtered with a cell harvester, the filtered filter paper was transferred to a measurement vial, a liquid scintillator was added, and the radioactivity of the [^35S] GTPγS remaining on the filter paper was determined by a liquid scintillation counter. The human serotonin 1A receptor and human dopamine (D2L, D2S, and D3) receptor agonist/antagonist activities of the test sample were expressed as the rates of increase, when making the increase in [^35S] GTPγS bonds due to 10 μM 5-CT (in the case of serotonin 1A receptors), 3 μM dopamine (in the cases of D2L and D2S receptors), or 0.1 μM dopamine (in the case of D3 receptors) 100%. From the bond increasing rate, a regression formula was used to calculate the 50% reaction concentration (EC50) and 50% inhibition concentration (IC50).

[2] = biological target: T2, human dopamine D3 receptors (Homo sapiens, UniProt P35462); test: Binding affinity test on human dopamine D3 receptors ([3H]spiperone, CHO membranes); details: for binding affinity (in words): human dopamine D3 receptors
T2 construct: expressed in transfected cells; host or cells: CHO
T2 sequence (P35462 whole entry): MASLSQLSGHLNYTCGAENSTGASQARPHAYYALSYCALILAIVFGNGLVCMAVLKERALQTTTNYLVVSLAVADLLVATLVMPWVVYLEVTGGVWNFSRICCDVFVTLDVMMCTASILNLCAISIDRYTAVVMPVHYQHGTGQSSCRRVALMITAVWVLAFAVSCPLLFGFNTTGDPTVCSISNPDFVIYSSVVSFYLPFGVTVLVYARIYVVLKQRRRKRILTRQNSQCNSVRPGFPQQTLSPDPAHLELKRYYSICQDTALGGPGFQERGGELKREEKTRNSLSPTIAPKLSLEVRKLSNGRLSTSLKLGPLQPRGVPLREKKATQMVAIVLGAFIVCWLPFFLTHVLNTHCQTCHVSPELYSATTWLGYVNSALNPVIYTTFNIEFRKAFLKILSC
Experimental: For the test, membrane specimens prepared from Chinese hamster ovary (CHO) cells expressing human dopamine D3 receptors were used. To a 50 mM Tris-HCl buffer (pH 7.4) containing 1.4 mM ascorbic acid, 0.001% BSA, and 150 mM NaCl, [^3H] spiperone (final concentration 0.7 nM), the test sample solution and a membrane specimens were added. The reaction solution was allowed to react at 37° C. for 2 hours, then the reaction solution was filtered with a cell harvester, the filtered filter paper was transferred to a measurement vial, a liquid scintillator was added and the receptor bond radioactivity remaining on the filter paper was determined by a liquid scintillation counter.
The following formula was used to calculate the binding inhibition rate: […]
Furthermore, the inhibition constant (Ki) was calculated.

[3] = system: Parkinson's disease model rats; test: Hyperkinesia of the forelimbs and shortening of rotational behavior duration induced by repeated doses of levodopa; type: in vivo, rat; details: for rats that did not exhibit rotational behavior: 5 mg/kg oral
Source text: In rats with unilateral nigrostriatal dopamine nerve destruction generally used as Parkinson's disease animal models, it became clear that by administering levodopa by repeated dosage for about 5 weeks, behavior resembling the symptoms of advanced stage Parkinson's disease appeared. That is, in Parkinson's disease model rats prepared in the same way as in Example 4, along with repeated doses of levodopa, abnormal behavior such as involuntary extending of the forelimb or opening or closing of the hand, up-and-down movement of the wrist, choreiform tremor in the forelimb on the opposite side of microinjection of 6-hydroxydopamine was observed (FIG. 3). This abnormal behavior is reported by Steece-Collier et al. (Steece-Collier K. et al., “Embryonic mesencephalic grafts increase levodopa-induced forelimb hyperkinesia in parkinsonian rats”, Movement Disorders, 2003, 18, p. 1442-1454) as hyperkinesia of the forelimbs.
This appears dependent on the period of repeated doses of levodopa and reportedly is similar to clinical dyskinesia. […] Bibbiani et al. (Bibbiani F. et al., “Serotonin 5-HT1A agonist improves motor complications in rodent and primate parkinsonian models”, Neurology, 2001, 57, p. 1829-1834) report that in Parkinson's disease model rats, along with repeated doses of levodopa, a shortening of the rotational behavior duration is observed and that this phenomenon resembles the wearing off phenomenon in clinical studies.
That is, they treated each group by repeated doses of levodopa and repeated dosage of the tested substance for about 2 weeks (Monday to Friday) and observed the hyperkinesia of the forelimbs and rotational behavior after levodopa administration. Note that the SUN N4057 was subcutaneously administered right before levodopa administration, the sarizotan was orally administered about 20 minutes before levodopa dosage in accordance with above-mentioned known reports (Bibbiani F. et al., Neurology, 2001, 57, p. 1829-1834), and the Example Compound 4 of Japanese Patent Publication No. 2005-298402A was subcutaneously administered about 30 minutes before levodopa dosage in accordance with the above-mentioned Japanese Patent Publication No. 2005-298402A. Further, for the solvent, for SUN N4057 and Example Compound 4 of Japanese Patent Publication No. 2005-298402A, physiological saline was used.
In the same way as Example 4, Parkinson's disease model rats were prepared and the rats treated by repeated doses of levodopa (twice a day, Monday to Friday) for 5 weeks and measured for hyperkinesia of the forelimbs and rotational behavior. Further, based on the results of the hyperkinesia of the forelimbs and rotational behavior duration, the rats were assigned to the groups so as to prevent any significant difference between them, then the effects of the tested substances on these behaviors resembling symptoms of advanced stage Parkinson's disease patients were compared and studied. […] Note that compound Ib (0.3, 1 mg/kg) and compound Ic (0.3, 1 mg/kg) were both intraperitoneally administered right before levodopa administration. For the solvent, physiological saline was used.

[4] = 3 μM dopamine = 100%, read-out: Agonist assay Emax
[5] = with 3 μM dopamine, read-out: Antagonist assay Emax
[6] = 1, 3 mg/kg s.c. repeated 2 weeks
[7] = 0.03, 0.1 mg/kg s.c. repeated 2 weeks

| Compound | EC50 [1] [nM] | Emax [1, 4] [%] | IC50 ([1]; with 3 μM dopamine) [nM] | Emax [1, 5] [%] | antagonist activity (in words) [1] | Ki ([2]; Dopamine D3, read-out: Ki) [nM] | binding affinity (in words) [2] | further results |
| --- | --- | --- | --- | --- | --- | --- | --- | --- |
| Cl.Cl.O=c1[nH]c2cccc(C3CCCN(Cc4cncc(-c5ccc(F)cc5)c4)C3)c2o1 (stereo not shown) [7-(1-{[5-(4-fluorophenyl)pyridin-3-yl]methyl}piperidin-3-yl)-1,3-benzoxazol-2(3H)-one dihydrochloride] | > 500 | 27 | 17.9 | 69 | antagonist activity | 9.07 | comparatively strong binding affinity | rotational behavior duration ([3]; 3 mg/kg s.c. repeated 2 weeks): significant prolongation; end of the rotational behavior [3, 6]: prolonged; start of rotational behavior [3, 6]: started earlier; hyperkinesia of the forelimbs ([3]; 1, 3 mg/kg s.c. repeated 2 weeks, vs physiological saline group, dihydrochloride): no action was exhibited; also recorded: no significant difference |
| O=C1c2ccccc2OC=C(Cl)N1CCCCN1CC=C(c2ccccn2)CC1 [SUN N4057, 3-chloro-4,5-dihydro-4-{4-[4-(2-pyridyl)-1,2,3,6-tetrahydropyridin-1-yl]butyl}-1,4-benzoxazepin-5-one.dihydrochloride-dihydrate] | > 500 | 41 | > 500 | 25 | does not have an antagonist action | 42.8 | – | hyperkinesia of the forelimbs ([3]; 0.03 mg/kg s.c. repeated 2 weeks, 1 hour after levodopa dosage): significantly inhibited; hyperkinesia of the forelimbs ([3]; 0.1 mg/kg s.c. repeated 2 weeks, 1 and 2 hours after levodopa dosage): significantly inhibited; end of the rotational behavior [3, 7]: significantly prolonged; rotational behavior duration [3, 7]: significantly prolonged |
| Cl.Cl.Fc1ccc(-c2cncc(CNC[C@H]3CCc4ccccc4O3)c2)cc1 [Sarizotan, 1-[(2R)-3,4-dihydro-2H-chromen-2-yl]-N-{[5-(4-fluorophenyl)pyridin-3-yl]methyl}methanamine dihydrochloride] | > 500 | 5 | 66.7 | 74 | antagonist activity | – | comparatively strong binding affinity | Ki [2]: 3.48 nM; rotational behavior duration ([3]; 5 mg/kg oral repeated 2 weeks): significant shortening; hyperkinesia of the forelimbs ([3]; 5 mg/kg oral repeated 2 weeks, 1 hour after levodopa dosage, p=0.099): tendency of the hyperkinesia of the forelimbs to be inhibited; rats that did not exhibit rotational behavior ([3]; 30 minutes after levodopa dosage): Six out of nine; rats that did not exhibit rotational behavior ([3]; 1 hour after levodopa dosage): three out of nine; start of rotational behavior due to levodopa dosage ([3]; 1 and 5 mg/kg oral repeated 2 weeks): delay in the start of rotational behavior; hyperkinesia of the forelimbs, compared with the solvent group (Dunnett's test) ([3]; repeated oral administration, week 7 of levodopa): no significant difference |
